Measurements published in US20240308977A1, “PYRIDAZINE DERIVATIVES AS INHIBITORS OF NLRP3” (Hoffmann-La Roche Inc., priority 2021, published 2024).
pIC50: −log10 of the molar value.

Key:
Format in all cases: cell-based
NLRP3 [1] = molecular target: T1, NLRP3 (Homo sapiens, UniProt Q96P20); experiment: Human whole blood IL-1β release assay; design: Human whole blood in Li-heparin tubes was obtained from healthy donors; from tissue; host or cells: human whole blood from healthy donors; conditions: LPS 1 μg/ml, nigericin 10 μM, IL-1β by AlphaLisa
Experimental: Human whole blood in Li-heparin tubes was obtained from healthy donors from a volunteer donor panel. • 1. […] Incubate for 3 hours at 37° C., 5% CO2 • 4. Add 10 μl nigericin (Sigma #N7143) (10 μM FAC) to all wells • 5. Incubate for 1 hr at 37° C., 5% CO2 • 6. At the end of the incubation period, spin plates at 300 xg for 5 mins to pellet cells and remove 20 μl of supernatant and add to 96-well v-bottom plates for IL-1β analysis (note: these plates containing the supernatants can be stored at −80° C. to be analysed at a later date) • 7. IL-1β was measured according to the manufacturer protocol (Perkin Elmer-AlphaLisa IL-1 Kit AL220F-5000) • 8. IC50 data is fitted to a non-linear regression equation (log inhibitor vs response-variable slope 4-parameters)

NLRP3 [2] = molecular target: T1, NLRP3; experiment: THP-1 cells pyroptosis assay; design: Seed THP-1 cells (25,000 cells/well) containing 10 μg/ml LPS; host or cells: THP-1 cells; conditions: LPS primed, nigericin 5 μM, resazurin read-out
Experimental: Therefore, it is anticipated that inhibitors of NLRP3 will block pyroptosis, as well as the release of pro-inflammatory cytokines (e.g. IL-1B) from the cell.
On the day of the experiment, THP-1 cells were harvested and resuspended into RPMI medium (without FBS). The cells were then counted and viability (>90%) checked by Trypan blue (Sigma #T8154). […] To this diluted cell solution was added LPS (Sigma #L4524) to give a 1 μg/ml Final Assay Concentration (FAC). 40 μl of the final preparation was aliquoted into each well of a 96-well plate. The plate thus prepared was used for compound screening.
The following method step-by-step assay was followed for compound screening. • 1. […] Incubate for 3 hours at 37° C., 5% CO2 • 4. Add 5 μl nigericin (Sigma #N7143) (FAC 5 μM) to all wells • 5. Incubate for 1 hr at 37° C., 5% CO2 • 6. At the end of the incubation period, spin plates at 300 xg for 3 mins and remove supernatant • 7. […] IC50 data is fitted to a non-linear regression equation (log inhibitor vs response-variable slope 4-parameters)

[3] = molecular target: T2, hERG cardiac potassium channel (Homo sapiens, UniProt Q12809); experiment: hERG screening assay (automated patch clamp, CHO crelox hERG cells); conditions: whole-cell patch clamp at 35-37° C.
T2 construct: host or cells: CHO crelox hERG cell line (Chinese hamster)
Experimental: Ready-to-use frozen instant CHO-hERG cells were cryopreserved at Evotec (Germany) and used directly in the experiments.
The internal solution contains (in mM): KCl, 10; KF, 100; NaCl, 10; HEPES, 10; EGTA, 20; pH=7.0-7.4 with KOH, osmolarity 260-300 mOsm.
The effects of a compound on hERG K+-currents parameters will be evaluated at 2 concentrations in at least 4 cells.
K+ currents are measured with the patch-voltage-clamp technique in the whole-cell configuration at 35-37° C.
The amplitudes of IKhERG were recorded in each concentration of drug and they were compared to the vehicle control values (taken as 100%) to define fractional blocks. The concentration-response data were fitted with the following relationship:
Concentration-response curves were fitted by non-linear regression analysis using EworkBook suite (ID Business Solutions Ltd, UK). Data fit was done with the 4 Parameter Logistic Model (fit=(A+(B/(1+((x/C)^D)))), where A=0 and B=100).
In the drug development process of small molecules, one of the most frequent adverse side effects, leading to the failure of drugs, is the cardiac arrhythmias. Such failure is often related to the capacity of the drug to inhibit the human ether-à-go-go-related gene (hERG) cardiac potassium channel. Having no or low inhibition of the hERG cardiac potassium channel is therefore considered as beneficial.

T1 sequence (Q96P20 whole entry): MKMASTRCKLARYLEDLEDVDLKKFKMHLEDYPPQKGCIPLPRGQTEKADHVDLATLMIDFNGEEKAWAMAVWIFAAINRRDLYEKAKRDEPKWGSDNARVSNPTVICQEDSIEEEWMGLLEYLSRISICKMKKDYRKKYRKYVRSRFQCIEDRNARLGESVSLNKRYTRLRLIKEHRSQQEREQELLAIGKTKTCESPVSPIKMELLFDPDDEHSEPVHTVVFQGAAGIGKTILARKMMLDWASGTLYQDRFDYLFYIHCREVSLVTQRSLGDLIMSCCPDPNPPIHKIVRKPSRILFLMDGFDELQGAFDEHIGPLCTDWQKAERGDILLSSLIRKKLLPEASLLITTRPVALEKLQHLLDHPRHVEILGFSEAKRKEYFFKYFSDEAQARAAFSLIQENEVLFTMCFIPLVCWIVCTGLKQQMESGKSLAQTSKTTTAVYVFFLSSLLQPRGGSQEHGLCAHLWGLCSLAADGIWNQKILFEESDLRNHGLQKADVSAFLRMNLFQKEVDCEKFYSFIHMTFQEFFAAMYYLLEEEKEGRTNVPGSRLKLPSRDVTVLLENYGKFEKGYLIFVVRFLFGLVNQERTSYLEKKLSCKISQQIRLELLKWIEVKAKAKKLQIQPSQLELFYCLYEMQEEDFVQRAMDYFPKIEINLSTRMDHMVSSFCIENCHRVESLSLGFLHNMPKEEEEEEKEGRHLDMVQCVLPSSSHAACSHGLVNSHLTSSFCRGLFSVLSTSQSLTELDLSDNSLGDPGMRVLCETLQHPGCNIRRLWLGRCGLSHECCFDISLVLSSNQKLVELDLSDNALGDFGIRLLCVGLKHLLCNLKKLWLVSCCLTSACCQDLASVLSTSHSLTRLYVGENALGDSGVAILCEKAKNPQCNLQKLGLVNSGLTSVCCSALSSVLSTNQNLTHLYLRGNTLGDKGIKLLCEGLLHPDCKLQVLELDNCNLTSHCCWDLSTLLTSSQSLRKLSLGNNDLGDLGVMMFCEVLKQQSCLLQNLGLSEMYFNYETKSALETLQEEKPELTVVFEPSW
T2 sequence (Q12809 whole entry): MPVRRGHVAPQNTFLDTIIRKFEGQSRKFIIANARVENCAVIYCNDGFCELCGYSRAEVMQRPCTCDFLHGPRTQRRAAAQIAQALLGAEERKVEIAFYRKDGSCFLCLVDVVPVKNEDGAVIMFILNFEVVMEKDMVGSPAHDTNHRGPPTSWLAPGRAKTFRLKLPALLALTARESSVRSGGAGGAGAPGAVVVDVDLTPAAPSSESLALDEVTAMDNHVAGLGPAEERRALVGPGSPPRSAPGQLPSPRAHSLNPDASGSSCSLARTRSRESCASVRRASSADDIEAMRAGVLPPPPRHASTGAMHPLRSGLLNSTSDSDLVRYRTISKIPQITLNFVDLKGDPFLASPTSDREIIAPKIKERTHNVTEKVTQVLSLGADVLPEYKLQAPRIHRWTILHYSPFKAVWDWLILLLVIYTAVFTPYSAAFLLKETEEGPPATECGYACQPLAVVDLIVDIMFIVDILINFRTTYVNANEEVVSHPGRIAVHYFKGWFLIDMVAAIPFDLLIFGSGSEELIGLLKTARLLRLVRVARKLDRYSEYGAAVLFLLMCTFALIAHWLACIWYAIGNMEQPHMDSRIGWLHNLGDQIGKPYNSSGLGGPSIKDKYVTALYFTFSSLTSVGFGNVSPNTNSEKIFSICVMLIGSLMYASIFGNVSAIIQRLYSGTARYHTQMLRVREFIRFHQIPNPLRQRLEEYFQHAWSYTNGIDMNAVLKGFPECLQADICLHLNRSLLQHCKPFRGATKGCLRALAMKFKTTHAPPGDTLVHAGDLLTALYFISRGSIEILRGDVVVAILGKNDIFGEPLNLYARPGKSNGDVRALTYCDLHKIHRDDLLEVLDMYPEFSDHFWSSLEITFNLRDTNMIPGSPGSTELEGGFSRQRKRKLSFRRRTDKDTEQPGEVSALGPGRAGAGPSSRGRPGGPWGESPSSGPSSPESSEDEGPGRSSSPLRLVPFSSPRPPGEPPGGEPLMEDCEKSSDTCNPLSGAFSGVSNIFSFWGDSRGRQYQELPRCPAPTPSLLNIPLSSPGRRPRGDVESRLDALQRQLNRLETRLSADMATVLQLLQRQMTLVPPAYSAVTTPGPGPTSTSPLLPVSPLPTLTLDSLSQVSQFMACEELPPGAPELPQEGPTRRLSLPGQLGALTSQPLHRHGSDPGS

Q: `CCN1CCC2CCN(c3ccc(-c4c(C)cc(C#N)cc4O)nn3)C2C1` (single isomer, unassigned) [Example 6A, 4-[6-[(3aS,7aR)-6-Ethyl-3,3a,4,5,7,7a-hexahydro-2H-pyrrolo[2,3-c]pyridin-1-yl]pyridazin-3-yl]-3-hydroxy-5-methyl-benzonitrile or 4-[6-[(3aR,7aS)-6-ethyl-3,3a,4,5,7,7a-hexahydro-2H-pyrrolo[2,3-c]pyridin-1-yl]pyridazin-3-yl]-3-hydroxy-5-methyl-benzonitrile] was tested. Which pIC50 (NLRP3 [1]) did it give?
A: 7.83

Q: What about the pIC50 (NLRP3 [2]) of the same compound?
A: 8.41

Q: With `CCN1CCC2CCN(c3ccc(-c4c(C)cc(C#N)cc4O)nn3)C2C1` (single isomer, unassigned) [Example 6B, 4-[6-[(3aR,7aS)-6-Ethyl-3,3a,4,5,7,7a-hexahydro-2H-pyrrolo[2,3-c]pyridin-1-yl]pyridazin-3-yl]-3-hydroxy-5-methyl-benzonitrile or 4-[6-[(3aS,7aR)-6-ethyl-3,3a,4,5,7,7a-hexahydro-2H-pyrrolo[2,3-c]pyridin-1-yl]pyridazin-3-yl]-3-hydroxy-5-methyl-benzonitrile] as the compound, how does the pIC50 (NLRP3 [2]) read?
A: 6.12

Q: How did the pIC50 [3] turn out when `CCN1CCC[C@@H](Nc2cc(C)c(-c3ccc(C#N)cc3O)nn2)C1` [Example 1, 4-[6-[[(3R)-1-Ethyl-3-piperidyl]amino]-4-methyl-pyridazin-3-yl]-3-hydroxy-benzonitrile; formic acid] was run?
A: < 4.70

Q: And the pIC50 (NLRP3 [1])?
A: 8.49

Q: What about the pIC50 (NLRP3 [2]) of the same compound?
A: 8.51

Q: What does the source list for `CCN1CCC[C@@H](Nc2cc(C(F)(F)F)c(-c3ccc(C#N)cc3O)nn2)C1` [Example 3, 4-[6-[[(3R)-1-Ethyl-3-piperidyl]amino]-4-(trifluoromethyl)pyridazin-3-yl]-3-hydroxy-benzonitrile]?
A: pIC50 (NLRP3 [1]): 7.29; pIC50 (NLRP3 [2]): 7.14

Q: With `Cc1cc(N[C@H]2C[C@@](C)(O)C2)nnc1-c1ccc(C#N)cc1O` [Example 4, 3-Hydroxy-4-[6-[(3-hydroxy-3-methyl-cyclobutyl)amino]-4-methyl-pyridazin-3-yl]benzonitrile] as the compound, how does the pIC50 (NLRP3 [2]) read?
A: 6.08
